# Toxic doses and inconclusive results are not listed.
# Test system: CD2F1 mice, L1210 leukemia ip, survival T/C
# Experiment: NCI In Vivo Anticancer Drug Screen. Data for tumor model L1210 Leukemia (intraperitoneal) in CD2F1 (CDF1) mice
# Details: higher = longer survival
# Procedure, shortened: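 In this screen, transplantable tumors were grown in mice given either the compound or its vehicle. Results were expressed as the treated measurement relative to the control measurement.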
# [1] = endpoint: mean survival time, dose: 100.0 mg/kg/injection, schedule: Q04DX002 (ip), vehicle: saline with Tween-80
# [2] = endpoint: mean survival time, dose: 100.0 mg/kg/injection, schedule: Q04DX003 (ip), vehicle: saline with Tween-80
# [3] = endpoint: mean survival time, dose: 200.0 mg/kg/injection, schedule: Q04DX003 (ip), vehicle: saline with Tween-80
# [4] = endpoint: mean survival time, dose: 400.0 mg/kg/injection, schedule: Q04DX003 (ip), vehicle: saline with Tween-80
# [5] = endpoint: mean survival time, dose: 100.0 mg/kg/injection, schedule: Q01DX009 (ip), vehicle: saline with Tween-80
# [6] = endpoint: mean survival time, dose: 200.0 mg/kg/injection, schedule: Q01DX009 (ip), vehicle: saline with Tween-80
smiles,measurement,setting,value
O=S(=O)([O][Hg][CH2]C1Cc2ccccc2O1)[O][Hg][CH2]C1Cc2ccccc2O1 (centres undefined),T/C,"endpoint: mean survival time, dose: 6.25 mg/kg/injection, schedule: Q01DX009 (ip), vehicle: Klucel (hydroxypropylcellulose) (HPC)",95 % of control
same,T/C,"endpoint: mean survival time, dose: 12.5 mg/kg/injection, schedule: Q01DX009 (ip), vehicle: Klucel (hydroxypropylcellulose) (HPC)",92 % of control
same,T/C,"endpoint: mean survival time, dose: 25.0 mg/kg/injection, schedule: Q01DX009 (ip), vehicle: Klucel (hydroxypropylcellulose) (HPC)",96 % of control
same,T/C,"endpoint: median survival time, dose: 6.25 mg/kg/injection, schedule: Q04DX003 (ip), vehicle: saline with Tween-80",100 % of control
same,T/C,"endpoint: median survival time, dose: 12.5 mg/kg/injection, schedule: Q04DX003 (ip), vehicle: saline with Tween-80",100 % of control
same,T/C,"endpoint: median survival time, dose: 25.0 mg/kg/injection, schedule: Q04DX003 (ip), vehicle: saline with Tween-80",100 % of control
CN(CC(=O)O)C(=O)c1cc2ccccc2[nH]1,T/C,"endpoint: mean survival time, dose: 37.5 mg/kg/injection, schedule: Q04DX002 (ip), vehicle: saline with Tween-80",101 % of control
same,T/C,"endpoint: mean survival time, dose: 75.0 mg/kg/injection, schedule: Q04DX002 (ip), vehicle: saline with Tween-80",89 % of control
same,T/C,"endpoint: mean survival time, dose: 150.0 mg/kg/injection, schedule: Q04DX002 (ip), vehicle: saline with Tween-80",93 % of control
Cc1cccc(NC(=O)COc2c(C)cc(Cl)cc2Cl)c1,T/C,[1],98 % of control
same,T/C,"endpoint: mean survival time, dose: 200.0 mg/kg/injection, schedule: Q04DX002 (ip), vehicle: saline with Tween-80",94 % of control
same,T/C,"endpoint: mean survival time, dose: 400.0 mg/kg/injection, schedule: Q04DX002 (ip), vehicle: saline with Tween-80",90 % of control
CN1N(C(O)C(Cl)(Cl)Cl)C12CCCCC2 (centres undefined),T/C,"endpoint: mean survival time, dose: 12.0 mg/kg/injection, schedule: Q01DX001 (ip), vehicle: carboxymethylcellulose (CMC)",94 % of control
same,T/C,"endpoint: mean survival time, dose: 25.0 mg/kg/injection, schedule: Q01DX001 (ip), vehicle: carboxymethylcellulose (CMC)",97 % of control
same,T/C,"endpoint: mean survival time, dose: 50.0 mg/kg/injection, schedule: Q01DX001 (ip), vehicle: carboxymethylcellulose (CMC)",95 % of control
same,T/C,"endpoint: mean survival time, dose: 100.0 mg/kg/injection, schedule: Q01DX001 (ip), vehicle: carboxymethylcellulose (CMC)",95 % of control
COc1cc(NCCCCN2C(=O)c3ccccc3C2=O)c2ncccc2c1,T/C,[2],97 % of control
same,T/C,[3],102 % of control
same,T/C,[4],96 % of control
C=CCCCCCCCCC(=O)N(CCOC)CCOC,T/C,[2],93 % of control
same,T/C,[3],94 % of control
same,T/C,[4],98 % of control
COc1ccc(OC)c2c1CCC(O)(C#N)C2 (centres undefined),T/C,"endpoint: mean survival time, dose: 12.5 mg/kg/injection, schedule: Q01DX009 (ip), vehicle: water",98 % of control
same,T/C,"endpoint: mean survival time, dose: 25.0 mg/kg/injection, schedule: Q01DX009 (ip), vehicle: water",89 % of control
Nc1ccc(OCCc2c(N)nc(N)nc2N)cc1,T/C,"endpoint: mean survival time, dose: 100.0 mg/kg/injection, schedule: Q04DX002 (ip), vehicle: Klucel (hydroxypropylcellulose) (HPC)",98 % of control
same,T/C,"endpoint: mean survival time, dose: 200.0 mg/kg/injection, schedule: Q04DX002 (ip), vehicle: Klucel (hydroxypropylcellulose) (HPC)",102 % of control
same,T/C,"endpoint: mean survival time, dose: 400.0 mg/kg/injection, schedule: Q04DX002 (ip), vehicle: Klucel (hydroxypropylcellulose) (HPC)",98 % of control
CC(=O)OCC1OC(n2ccc3c(N)ncnc32)C(O)C1OC(C)=O (centres undefined),T/C,"endpoint: mean survival time, dose: 5.0 mg/kg/injection, schedule: Q01DX001 (ip), vehicle: saline",112 % of control
same,T/C,"endpoint: mean survival time, dose: 10.0 mg/kg/injection, schedule: Q01DX001 (ip), vehicle: saline",110 % of control
same,T/C,"endpoint: mean survival time, dose: 20.0 mg/kg/injection, schedule: Q01DX001 (ip), vehicle: saline",108 % of control
CSC(N)=Nc1ccc(C(=O)O)cc1,T/C,[2],100 % of control
same,T/C,[3],94 % of control
same,T/C,[4],94 % of control
Oc1c(C(c2ccccc2)N2CCOCC2)ccc2ccccc12 (centres undefined),T/C,"endpoint: mean survival time, dose: 50.0 mg/kg/injection, schedule: Q01DX009 (ip), vehicle: saline with Tween-80",94 % of control
same,T/C,[5],102 % of control
same,T/C,[2],95 % of control
same,T/C,[6],98 % of control
same,T/C,[3],103 % of control
OCC1OC(n2cnc3c(NO)nc(NO)nc32)C(O)C1O (centres undefined),T/C,"endpoint: mean survival time, dose: 2.25 mg/kg/injection, schedule: Q01DX009 (ip), vehicle: saline",115 % of control
same,T/C,"endpoint: mean survival time, dose: 4.5 mg/kg/injection, schedule: Q01DX009 (ip), vehicle: saline",116 % of control
same,T/C,"endpoint: mean survival time, dose: 9.0 mg/kg/injection, schedule: Q01DX009 (ip), vehicle: saline",116 % of control
same,T/C,"endpoint: mean survival time, dose: 18.0 mg/kg/injection, schedule: Q01DX009 (ip), vehicle: saline",122 % of control
same,T/C,"endpoint: mean survival time, dose: 36.0 mg/kg/injection, schedule: Q01DX009 (ip), vehicle: saline",192 % of control
same,T/C,"endpoint: median survival time, dose: 36.0 mg/kg/injection, schedule: Q01DX009 (ip), vehicle: saline",178 % of control
same,T/C,"endpoint: median survival time, dose: 54.0 mg/kg/injection, schedule: Q01DX009 (ip), vehicle: saline",188 % of control
same,T/C,"endpoint: median survival time, dose: 72.0 mg/kg/injection, schedule: Q01DX009 (ip), vehicle: saline",202 % of control
O=C1C2C3CCC(O3)C2C(=O)N1CO (centres undefined),T/C,"endpoint: mean survival time, dose: 25.0 mg/kg/injection, schedule: Q04DX002 (ip), vehicle: saline with Tween-80",110 % of control
same,T/C,"endpoint: mean survival time, dose: 50.0 mg/kg/injection, schedule: Q04DX002 (ip), vehicle: saline with Tween-80",98 % of control
same,T/C,[1],91 % of control
O=C(/C=C\c1ccccc1)c1ccc(Cl)cc1,T/C,"endpoint: mean survival time, dose: 100.0 mg/kg/injection, schedule: Q01DX001 (ip), vehicle: other",90 % of control
same,T/C,"endpoint: mean survival time, dose: 200.0 mg/kg/injection, schedule: Q01DX001 (ip), vehicle: other",92 % of control
same,T/C,"endpoint: mean survival time, dose: 400.0 mg/kg/injection, schedule: Q01DX001 (ip), vehicle: other",88 % of control
CC1(C)N=C(N)N=C(N)N1c1ccc(CCCCc2ccc(Cl)cc2Cl)cc1,T/C,"endpoint: mean survival time, dose: 6.25 mg/kg/injection, schedule: Q01DX009 (ip), vehicle: saline with Tween-80",98 % of control
same,T/C,"endpoint: mean survival time, dose: 6.25 mg/kg/injection, schedule: Q04DX003 (ip), vehicle: saline sonified",96 % of control
same,T/C,"endpoint: mean survival time, dose: 12.5 mg/kg/injection, schedule: Q01DX009 (ip), vehicle: saline with Tween-80",102 % of control
same,T/C,"endpoint: mean survival time, dose: 12.5 mg/kg/injection, schedule: Q04DX003 (ip), vehicle: saline sonified",98 % of control
same,T/C,"endpoint: mean survival time, dose: 25.0 mg/kg/injection, schedule: Q04DX003 (ip), vehicle: saline sonified",100 % of control
O.O.O.O.[Fe].[Fe].[Fe].[NH-]c1c(C(=O)O)ncn1C1[OH+]C(CO)C(O)C1O.[NH-]c1c(C(=O)O)ncn1C1[OH+]C(CO)C(O)C1O (centres undefined),T/C,"endpoint: mean survival time, dose: 12.5 mg/kg/injection, schedule: Q01DX005 (ip), vehicle: distilled water + Tween-80",94 % of control
same,T/C,"endpoint: mean survival time, dose: 25.0 mg/kg/injection, schedule: Q01DX005 (ip), vehicle: distilled water + Tween-80",97 % of control
same,T/C,"endpoint: mean survival time, dose: 50.0 mg/kg/injection, schedule: Q01DX005 (ip), vehicle: distilled water + Tween-80",103 % of control
same,T/C,"endpoint: mean survival time, dose: 200.0 mg/kg/injection, schedule: Q01DX005 (ip), vehicle: distilled water + Tween-80",88 % of control
c1ccc2c(c1)Cc1c-2nc2ccccc2c1N1CCOCC1,T/C,"endpoint: mean survival time, dose: 100.0 mg/kg/injection, schedule: Q01DX001 (ip), vehicle: saline with Tween-80",94 % of control
same,T/C,[5],97 % of control
same,T/C,"endpoint: mean survival time, dose: 200.0 mg/kg/injection, schedule: Q01DX001 (ip), vehicle: saline with Tween-80",100 % of control
same,T/C,[6],106 % of control
same,T/C,"endpoint: mean survival time, dose: 400.0 mg/kg/injection, schedule: Q01DX001 (ip), vehicle: saline with Tween-80",92 % of control
COC(=O)c1cc(C)ccc1O,T/C,[5],96 % of control
same,T/C,[2],90 % of control
same,T/C,[6],101 % of control
same,T/C,[3],93 % of control
same,T/C,[4],100 % of control
O=C(CI)NCc1cn(C2CC(O)C(CO)O2)c(=O)[nH]c1=O (centres undefined),T/C,"endpoint: mean survival time, dose: 4.0 mg/kg/injection, schedule: Q01DX005 (ip), vehicle: water",106 % of control
same,T/C,"endpoint: mean survival time, dose: 8.0 mg/kg/injection, schedule: Q01DX005 (ip), vehicle: water",114 % of control
same,T/C,"endpoint: mean survival time, dose: 16.0 mg/kg/injection, schedule: Q01DX005 (ip), vehicle: water",106 % of control
same,T/C,"endpoint: mean survival time, dose: 32.0 mg/kg/injection, schedule: Q01DX005 (ip), vehicle: water",111 % of control
same,T/C,"endpoint: mean survival time, dose: 64.0 mg/kg/injection, schedule: Q01DX005 (ip), vehicle: water",114 % of control
CC1(C)CC2(C)OC2C2(C1)N=NC(=Nc1ccccc1)O2 (centres undefined),T/C,"endpoint: median survival time, dose: 25.0 mg/kg/injection, schedule: Q01DX009 (ip), vehicle: saline with Tween-80",110 % of control
same,T/C,"endpoint: median survival time, dose: 50.0 mg/kg/injection, schedule: Q01DX009 (ip), vehicle: saline with Tween-80",102 % of control
O=[N+]([O-])C/C=C(/C=Nc1ccc(Cl)cc1)[N+](=O)[O-],T/C,"endpoint: mean survival time, dose: 100.0 mg/kg/injection, schedule: Q01DX009 (ip), vehicle: saline",101 % of control
same,T/C,"endpoint: mean survival time, dose: 100.0 mg/kg/injection, schedule: Q04DX003 (ip), vehicle: saline",105 % of control
same,T/C,"endpoint: mean survival time, dose: 200.0 mg/kg/injection, schedule: Q01DX009 (ip), vehicle: saline",102 % of control
same,T/C,"endpoint: mean survival time, dose: 200.0 mg/kg/injection, schedule: Q04DX003 (ip), vehicle: saline",97 % of control
same,T/C,"endpoint: mean survival time, dose: 400.0 mg/kg/injection, schedule: Q01DX009 (ip), vehicle: saline",96 % of control
same,T/C,"endpoint: mean survival time, dose: 400.0 mg/kg/injection, schedule: Q04DX003 (ip), vehicle: saline",97 % of control

# — PubChem BioAssay AID256 (DTP/NCI, 2004)
